Measurements reported in US20250346575A1, “ISOINDOLINONE DERIVATIVE HAVING GLUTARIMIDE MOTHER NUCLEUS, AND USE THEREOF” (KOREA RESEARCH INSTITUTE OF CHEMICAL TECHNOLOGY, priority 2021, published 2025).

These compounds were tested on Cancer cells (KG-1) (assay: Cytotoxicity assay, WST-1, KG-1). Settings: Homo sapiens; KG-1 cells, 72 hours, WST-1.
Assay type: cell-based
Method: To evaluate the effect of the compounds of the present disclosure on cancer cells, a cytotoxicity assay was conducted as follows.
Cancer cells (KG-1) were seeded at a concentration of 10,000 cells per well into a 96-well plate. Then, the cells were treated with predetermined concentrations of compounds of the Examples and comparative substances (comparative compounds 1, 2, 3). After 72 hours, the cells were incubated with WST-1 reagent for one hour. Then, absorbance was measured at 450 nm using a spectramax spectrophotometer to assess the degree of cancer cell apoptosis. The IC50 (μM) values were calculated using the measured values with the GraphPad Prism program and the measurements are summarized in Table 1.

Question: Which IC50 does the source give for `O=C1CCC(N2Cc3cc(CNC(=O)c4noc5cc(Cl)ccc45)ccc3C2=O)C(=O)N1` (stereo not shown) [Compound 10, 6-Chloro-N-((2-(2,6-dioxopiperidin-3-yl)-1-oxoisoindolin-5-yl)methyl)benzo[d]isoxazole-3-carboxamide] here?
Answer: 0.0001 to 0.01 µM

Question: How did the IC50 turn out when `Cc1c(C(=O)NCc2ccc3c(c2)CN(C2CCC(=O)NC2=O)C3=O)nn(CC(C)C)c1-c1cccc(Cl)c1` (stereo not shown) [Compound 41, 5-(3-Chlorophenyl)-N-((2-(2,6-dioxopiperidin-3-yl)-1-oxoisoindolin-5-yl)methyl)-1-isobutyl-4-methyl-1H-pyrazole-3-carboxamide] was run?
Answer: 0.0001 to 0.01 µM

Question: For `Cc1c(C(=O)NCc2ccc3c(c2)CN(C2CCC(=O)NC2=O)C3=O)nn(-c2ccccc2)c1-c1cccc(Cl)c1` (stereo not shown) [Compound 42, 5-(3-chlorophenyl)-N-((2-(2,6-dioxopiperidin-3-yl)-1-oxoisoindolin-5-yl)methyl)-4-methyl-1-phenyl-1H-pyrazole-3-carboxamide], which IC50 is on record?
Answer: 0.0001 to 0.01 µM

Question: With `Cc1c(C(=O)NCc2ccc3c(c2)CN(C2CCC(=O)NC2=O)C3=O)nn(Cc2ccc(F)cc2)c1-c1cccc(Cl)c1` (stereo not shown) [Compound 43] as the compound, how does the IC50 read?
Answer: 0.0001 to 0.01 µM

Question: `O=C1CCC(N2Cc3cc(CNC(=O)c4nc5cc(Cl)ccc5s4)ccc3C2=O)C(=O)N1` (stereo not shown) [Compound 44, 5-chloro-N-((2-(2,6-dioxopiperidin-3-yl)-1-oxoisoindolin-5-yl)methyl)benzo[d]thiazole-2-carboxamide] was tested. Which IC50 did it give?
Answer: 0.01 to 1 µM

Question: How did the IC50 turn out when `Cc1cnc(C(=O)NCc2ccc3c(c2)CN(C2CCC(=O)NC2=O)C3=O)cc1-c1ccccc1` (stereo not shown) [Compound 45, N-((2-(2,6-Dioxopiperidin-3-yl)-1-oxoisoindolin-5-yl)methyl)-5-methyl-4-phenylpicolinamide] was run?
Answer: 0.0001 to 0.01 µM

Question: `O=C1CCC(N2Cc3cc(CNC(=O)c4cc(-c5ccccc5)c(Cl)cn4)ccc3C2=O)C(=O)N1` (stereo not shown) [Compound 46, 5-Chloro-N-((2-(2,6-dioxopiperidin-3-yl)-1-oxoisoindolin-5-yl)methyl)-4-phenylpicolinamide] was tested. Which IC50 did it give?
Answer: 0.0001 to 0.01 µM

Question: Which IC50 does the source give for `O=C1CCC(N2Cc3cc(CNC(=O)c4ccccc4-c4ccccc4)ccc3C2=O)C(=O)N1` (stereo not shown) [Compound 52, N-((2-(2,6-Dioxopiperidin-3-yl)-1-oxoisoindolin-5-yl)methyl)-[1,1′-biphenyl]-2-carboxamide] here?
Answer: 10 to 50 µM

Question: For `O=C1CCC(N2Cc3cc(CNC(=O)C4(c5ccc(Cl)cc5)CCCC4)ccc3C2=O)C(=O)N1` (stereo not shown) [Compound 53, 1-(4-Chlorophenyl)-N-((2-(2,6-dioxopiperidin-3-yl)-1-oxoisoindolin-5-yl)methyl)cyclopentane-1-carboxamide], which IC50 is on record?
Answer: 10 to 50 µM

Question: For `O=C1CCC(N2Cc3cc(CNC(=O)C4(c5ccccc5)CCCC4)ccc3C2=O)C(=O)N1` (stereo not shown) [Compound 54, N-((2-(2,6-Dioxopiperidin-3-yl)-1-oxoisoindolin-5-yl)methyl)-1-phenylcyclopentane-1-carboxamide], which IC50 is on record?
Answer: 10 to 50 µM

Question: For `O=C1CCC(N2Cc3cc(CNC(=O)C4CCN(c5ccccc5)C4=O)ccc3C2=O)C(=O)N1` (stereo not shown) [Compound 55, N-((2-(2,6-Dioxopiperidin-3-yl)-1-oxoisoindolin-5-yl)methyl)-2-oxo-1-phenylpyrrolidine-3-carboxamide], which IC50 is on record?
Answer: 1 to 10 µM

Same assay, conditions: R1 bicyclic heteroaryl compared to monocyclic aryl (comparative substance) or heteroaryl (Compounds 37 and 38)

Question: `O=C1CCC(N2Cc3cc(CNC(=O)c4noc5cc(Cl)ccc45)ccc3C2=O)C(=O)N1` (stereo not shown) [Compound 10, 6-Chloro-N-((2-(2,6-dioxopiperidin-3-yl)-1-oxoisoindolin-5-yl)methyl)benzo[d]isoxazole-3-carboxamide] was tested. Which “cytotoxic activity against KG-1 and NCI-H1155 cancer cells (in words)” value did it give?
Answer: more potent cytotoxic activity

The compounds below were run against T1, GSPT1 protein (Homo sapiens, UniProt P15170+Q96SW2) (assay: Substrate protein degradation activity of CRBN (Western blot)). Settings: KG-1 cell lines, 6 hours, FIG. 1.
T1 construct: endogenous in cells; host or cells: KG-1 cells
T1 sequence (P15170 whole entry): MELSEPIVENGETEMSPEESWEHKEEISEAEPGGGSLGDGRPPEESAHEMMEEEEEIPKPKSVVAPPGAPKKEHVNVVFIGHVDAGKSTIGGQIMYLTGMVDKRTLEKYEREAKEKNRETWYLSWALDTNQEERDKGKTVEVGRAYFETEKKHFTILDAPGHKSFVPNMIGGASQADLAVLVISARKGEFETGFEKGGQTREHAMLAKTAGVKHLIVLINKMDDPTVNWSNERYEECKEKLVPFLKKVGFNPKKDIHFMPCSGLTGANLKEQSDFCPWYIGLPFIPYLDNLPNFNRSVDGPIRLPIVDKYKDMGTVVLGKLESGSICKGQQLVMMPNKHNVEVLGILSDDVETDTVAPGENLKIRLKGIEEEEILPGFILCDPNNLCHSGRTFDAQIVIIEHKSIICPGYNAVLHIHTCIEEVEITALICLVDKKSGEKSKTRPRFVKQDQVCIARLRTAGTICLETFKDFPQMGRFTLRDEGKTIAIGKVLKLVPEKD
T1 sequence (Q96SW2 whole entry): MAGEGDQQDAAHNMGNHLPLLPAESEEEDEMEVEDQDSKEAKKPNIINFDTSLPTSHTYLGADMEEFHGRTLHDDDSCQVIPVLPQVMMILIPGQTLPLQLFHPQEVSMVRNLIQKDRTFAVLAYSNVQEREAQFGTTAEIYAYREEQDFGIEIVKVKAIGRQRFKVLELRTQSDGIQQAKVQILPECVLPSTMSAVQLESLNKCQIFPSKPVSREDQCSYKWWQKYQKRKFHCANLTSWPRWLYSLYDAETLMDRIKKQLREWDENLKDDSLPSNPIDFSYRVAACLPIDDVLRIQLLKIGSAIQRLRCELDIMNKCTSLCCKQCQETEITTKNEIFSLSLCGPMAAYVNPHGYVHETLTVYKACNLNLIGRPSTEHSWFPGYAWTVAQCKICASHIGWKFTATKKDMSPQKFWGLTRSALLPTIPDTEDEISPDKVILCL
T1 sequence (Q16531 whole entry partner): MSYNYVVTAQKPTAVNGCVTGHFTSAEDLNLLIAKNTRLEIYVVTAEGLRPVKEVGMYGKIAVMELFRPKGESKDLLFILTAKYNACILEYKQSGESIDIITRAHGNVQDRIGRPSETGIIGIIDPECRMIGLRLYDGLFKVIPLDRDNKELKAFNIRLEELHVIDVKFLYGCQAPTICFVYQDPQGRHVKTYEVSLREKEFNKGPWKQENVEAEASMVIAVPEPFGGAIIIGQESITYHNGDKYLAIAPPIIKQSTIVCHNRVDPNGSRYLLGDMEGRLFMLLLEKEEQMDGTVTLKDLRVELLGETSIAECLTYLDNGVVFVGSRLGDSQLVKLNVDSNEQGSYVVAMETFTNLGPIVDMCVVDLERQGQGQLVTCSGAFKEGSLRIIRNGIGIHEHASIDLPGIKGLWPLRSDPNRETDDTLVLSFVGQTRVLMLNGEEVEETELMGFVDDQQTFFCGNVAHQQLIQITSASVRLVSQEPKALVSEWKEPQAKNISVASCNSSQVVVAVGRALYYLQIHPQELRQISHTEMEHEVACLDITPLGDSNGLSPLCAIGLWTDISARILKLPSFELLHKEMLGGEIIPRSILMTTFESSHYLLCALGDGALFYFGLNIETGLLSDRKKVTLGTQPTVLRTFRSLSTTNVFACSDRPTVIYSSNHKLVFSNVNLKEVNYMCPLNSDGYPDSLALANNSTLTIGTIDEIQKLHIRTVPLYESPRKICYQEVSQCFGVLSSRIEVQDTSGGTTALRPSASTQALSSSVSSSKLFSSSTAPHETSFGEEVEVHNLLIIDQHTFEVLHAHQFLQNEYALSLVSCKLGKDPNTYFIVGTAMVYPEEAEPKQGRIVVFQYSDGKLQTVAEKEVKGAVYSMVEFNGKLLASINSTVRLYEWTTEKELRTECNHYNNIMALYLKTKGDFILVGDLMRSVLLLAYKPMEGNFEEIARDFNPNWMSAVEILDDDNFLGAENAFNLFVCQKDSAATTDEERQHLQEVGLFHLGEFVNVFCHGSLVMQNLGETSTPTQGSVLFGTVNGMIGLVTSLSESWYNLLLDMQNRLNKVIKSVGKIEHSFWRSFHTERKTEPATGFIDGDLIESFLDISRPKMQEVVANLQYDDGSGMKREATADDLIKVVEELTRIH
Assay type: cell-based
Excerpt: Examination was made to determine whether the compounds of the present disclosure bind to cereblon (CRBN) and inhibit the function of CRBN. In this regard, the compounds were investigated for degradation activity for Ikaros (IKZF1) protein (Chamberlain, P. P. et al., 2014) or GSPT1 protein (Matyskiela, M. E. et al., 2016) which CRBN protein degrades when binding to thalidomide and analogs thereof.
In order to assay the compounds according to the present disclosure for degradation activity for Ikaros (IKZF1) protein or GSPT1 protein, experiments were carried out as follows.
KG-1 cells were seeded at a density of 5×10^5 cells per well into 12-well plates, and each compound was added at predetermined concentration to the wells. After 6 hours, cell lysates were collected using TBSN buffer. The degradation activity of Ikaros protein was assessed using an antibody against Ikaros protein, and the degradation activity of GSPT1 protein was evaluated using an antibody against GSPT1 protein through Western blot analysis. In this regard, equal amounts of protein were loaded into each well of a 4-15% gradient gel, and after electrophoresis, proteins were transferred to a PVDF membrane. Each protein was then bound with primary antibodies, followed by the attachment of HRP-conjugated secondary antibodies, and developed using an HRP substrate.

Question: Which “degradation of GSPT1 protein” value does the source give for `O=C1CCC(N2Cc3cc(CNC(=O)c4noc5cc(Cl)ccc45)ccc3C2=O)C(=O)N1` (stereo not shown) [Compound 10, 6-Chloro-N-((2-(2,6-dioxopiperidin-3-yl)-1-oxoisoindolin-5-yl)methyl)benzo[d]isoxazole-3-carboxamide] here?
Answer: selectively promote the degradation of GSPT1 protein
